Experiment [1] deals with purified Ndh (Mtb recombinant MBP tagged Ndh-2 enzyme, MBP-Ndh) (Mycobacterium tuberculosis (strain ATCC 25618 / H37Rv), UniProt P95160). The experiment can be described thus: Biochemical evaluation of MBP-Ndh inhibition (NADH oxidation with menadione).
The test system of the next experiment is Mtb H37Rv-WT. The experiment can be described thus: MIC by resazurin microtiter assay (REMA) against Mtb. It is filed as cell-based. The following applies: Mycobacterium tuberculosis.
The target in experiment [2] is NdhA-M. tb (recombinant MBP-NdhA) (Mycobacterium tuberculosis (strain ATCC 25618 / H37Rv), UniProt P95200). The experiment can be described thus: Biochemical evaluation of MBP-NdhA inhibition (NADH oxidation with menadione).
A further experiment has as its system M. abscessus S. The experiment can be described thus: MIC analysis of non-Mtb mycobacteria. Format: cell-based, Mycobacterium abscessus. The following applies: Mycobacteroides abscessus, 48 h; 2 days incubation.
The subject of the next experiment is M. avium. The experiment can be described thus: MIC analysis of non-Mtb mycobacteria. It is filed as cell-based. The note with it: Mycobacterium avium, 120 h; 5 days incubation.
The test system of the next experiment is M. abscessus R. The experiment can be described thus: MIC analysis of non-Mtb mycobacteria. It is filed as cell-based, Mycobacterium abscessus. The note with it: Mycobacteroides abscessus, 48 h; 2 days incubation.
For a further experiment, the system named is M. smegmatis. The experiment can be described thus: MIC analysis of non-Mtb mycobacteria. Format: cell-based. The note with it: Mycolicibacterium smegmatis, 48 h; 2 days incubation.
The subject of another experiment is BCG. The experiment can be described thus: microbe, parasite or virus in culture. Format: cell-based. The following applies: Mycobacterium tuberculosis variant bovis BCG, read-out: MIC BCG.
Another experiment deals with M. marinum. The experiment can be described thus: MIC analysis of non-Mtb mycobacteria. Format: cell-based. The following applies: Mycobacterium marinum, 120 h; 5 days, 30° C., visual inspection.
Where [3] appears, read: NADH 500 μM, menadione 100 μM, read-out: IC50 (μM) purified Ndh.
[4] abbreviates: 144 h, REMA, 37° C., 6 days, read-out: MIC (μM) H37Rv-WT.
The mark [5] stands for this setting: 144 h, read-out: MIC (μM) H37Rv-WT.
The mark [6] stands for this setting: REMA, read-out: MIC M. tuberculosis.

Data on 26 compounds can be found in patent US20250353863A1, “TRICYCLIC SPIROLACTAM COMPOUNDS WITH ANTIMYCOBACTERIAL ACTIVITY” (priority 2022, published 2025).

The IC50 is the concentration needed to halve the response being measured.

The structures appear in SMILES notation. Converted amounts (≈) assume the structure as drawn. Like-named read-outs stand apart in the source and are kept apart here. Bounds are passed on as bounds.

Chain of purified Ndh (Mtb recombinant MBP tagged Ndh-2 enzyme, MBP-Ndh) (P95160 whole entry, looked up): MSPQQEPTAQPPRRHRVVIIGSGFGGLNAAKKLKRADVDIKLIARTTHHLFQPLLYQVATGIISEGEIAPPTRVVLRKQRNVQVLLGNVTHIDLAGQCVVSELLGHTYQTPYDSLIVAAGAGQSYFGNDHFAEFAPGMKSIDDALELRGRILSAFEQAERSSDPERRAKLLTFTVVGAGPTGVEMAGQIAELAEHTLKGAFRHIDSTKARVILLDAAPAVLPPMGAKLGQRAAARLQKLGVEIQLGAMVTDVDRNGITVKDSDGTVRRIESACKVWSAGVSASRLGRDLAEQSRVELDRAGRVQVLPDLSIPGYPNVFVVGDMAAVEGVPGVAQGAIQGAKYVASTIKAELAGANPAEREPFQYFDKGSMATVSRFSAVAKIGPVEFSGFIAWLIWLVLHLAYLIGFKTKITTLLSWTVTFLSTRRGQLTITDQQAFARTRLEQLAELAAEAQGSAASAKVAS
Chain of NdhA-M. tb (recombinant MBP-NdhA) (P95200 whole entry, looked up): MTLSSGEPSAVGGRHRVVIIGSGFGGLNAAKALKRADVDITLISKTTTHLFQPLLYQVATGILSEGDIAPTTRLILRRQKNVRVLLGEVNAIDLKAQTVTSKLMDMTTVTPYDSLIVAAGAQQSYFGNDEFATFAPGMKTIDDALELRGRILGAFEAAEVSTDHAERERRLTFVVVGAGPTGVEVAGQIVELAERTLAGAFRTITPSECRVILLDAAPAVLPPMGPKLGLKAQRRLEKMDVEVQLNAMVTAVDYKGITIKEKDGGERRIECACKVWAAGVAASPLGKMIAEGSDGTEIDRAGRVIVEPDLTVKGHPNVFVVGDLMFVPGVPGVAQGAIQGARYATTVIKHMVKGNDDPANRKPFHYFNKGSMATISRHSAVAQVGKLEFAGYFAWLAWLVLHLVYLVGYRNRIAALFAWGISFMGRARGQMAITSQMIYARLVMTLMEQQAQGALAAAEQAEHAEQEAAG

For the compound `CC(C)[C@H]1CO[C@]23CCN(CCc4ccc(C(F)(F)F)cc4)C[C@H]2CCC(=O)N13`, in experiment [1] (setting [3]), the IC50 lay within 0.1 to 1 µM. In addition, the MIC with Mtb H37Rv-WT (setting [4]) was < 1 µM.
Consider `CC(C)[C@H]1CO[C@]23CCN(Cc4ccccn4)C[C@H]2CCC(=O)N13`, for which the IC50 in experiment [1] was in the range of 0.1 to 1 µM. For the same compound, the MIC in the experiment with Mtb H37Rv-WT (setting [5]) fell in the range of 1 to 10 µM (≈ 0.329 to 3.29 µg/mL).
Take `CC(C)[C@H]1CO[C@]23CCN(C(=O)Cc4ccccc4)C[C@H]2CCC(=O)N13` [(3S,7aR,11aR)-3-isopropyl-9-(2-phenylacetyl)-2,3,6,7,7a,8,10,11-octahydrooxazolo[2,3-j][1,6]naphthyridin-5-one]: the half-inhibitory concentration (IC50) in experiment [1] (setting [3]) is > 1 µM. Moreover, the MIC in the experiment on Mtb H37Rv-WT (setting [4]) is > 10 µM.
The like results for `CC(C)[C@H]1CO[C@]23CCN(CCc4ccccc4)C[C@H]2CCC(=O)N13` [(3S,7aR,11aR)-3-isopropyl-9-(2-phenylethyl)-2,3,6,7,7a,8,10,11-octahydrooxazolo[2,3-j][1,6]naphthyridin-5-one] were, in that order, 0.1 to 1 µM and 1 to 10 µM (≈ 0.342 to 3.42 µg/mL).
The like results for `CC(C)[C@H]1CO[C@]23CCN(Cc4ccc5ccccc5n4)C[C@H]2CCC(=O)N13` [(3S,7aR,11aR)-3-isopropyl-9-(2-quinolylmethyl)-2,3,6,7,7a,8,10,11-octahydrooxazolo[2,3-j][1,6]naphthyridin-5-one] were, in that order, 0.1 to 1 µM and < 1 µM.
With `CC(C)[C@H]1CO[C@]23CCN(Cc4cccnc4)C[C@H]2CCC(=O)N13` [(3S,7aR,11aR)-3-isopropyl-9-(3-pyridylmethyl)-2,3,6,7,7a,8,10,11-octahydrooxazolo[2,3-j][1,6]naphthyridin-5-one], the IC50 in experiment [1] (setting [3]) was > 1 µM. Also, the MIC in the experiment with Mtb H37Rv-WT (setting [5]) lay within 1 to 10 µM (≈ 0.329 to 3.29 µg/mL).
For the compound `CC(C)[C@H]1CO[C@]23CCN(Cc4cccc5cccnc45)C[C@H]2CCC(=O)N13` [(3S,7aR,11aR)-3-isopropyl-9-(8-quinolylmethyl)-2,3,6,7,7a,8,10,11-octahydrooxazolo[2,3-j][1,6]naphthyridin-5-one], in experiment [1] (setting [3]), the IC50 is > 1 µM. For the same compound, the MIC with Mtb H37Rv-WT (setting [4]) was in the range of 1 to 10 µM (≈ 0.38 to 3.8 µg/mL).
The like results for `CC(C)[C@H]1CO[C@]23CCN(S(=O)(=O)c4ccc(C(F)(F)F)cc4)C[C@H]2CCC(=O)N13` [(3S,7aR,11aR)-3-isopropyl-9-[4-(trifluoromethyl)phenyl]sulfonyl-2,3,6,7,7a,8,10,11-octahydrooxazolo[2,3-j][1,6]naphthyridin-5-one] were, in that order, 0.1 to 1 µM and 1 to 10 µM (≈ 0.446 to 4.46 µg/mL).
`COc1ccc(CN2CC[C@]34OC[C@H](C(C)C)N3C(=O)CC[C@@H]4C2)cc1` [(3S,7aR,11aR)-3-isopropyl-9-[(4-methoxyphenyl)methyl]-2,3,6,7,7a,8,10,11-octahydrooxazolo[2,3-j][1,6]naphthyridin-5-one]: in experiment [1] (setting [3]), the IC50 is 0.1 to 1 µM. Further, in the experiment on Mtb H37Rv-WT (setting [4]), the MIC was 1 to 10 µM (≈ 0.358 to 3.58 µg/mL).
The like results for `CC(C)[C@H]1CO[C@]23CCN(Cc4ccc(C(F)(F)F)cn4)C[C@H]2CCC(=O)N13` [(3S,7aR,11aR)-3-isopropyl-9-[[5-(trifluoromethyl)-2-pyridyl]methyl]-2,3,6,7,7a,8,10,11-octahydrooxazolo[2,3-j][1,6]naphthyridin-5-one] were, in that order, 0.1 to 1 µM and < 1 µM.
The like results for `CC(C)[C@H]1CO[C@]23CCN(Cc4ccc(C(F)(F)F)nc4)C[C@H]2CCC(=O)N13` [(3S,7aR,11aR)-3-isopropyl-9-[[6-(trifluoromethyl)-3-pyridyl]methyl]-2,3,6,7,7a,8,10,11-octahydrooxazolo[2,3-j][1,6]naphthyridin-5-one] were, in that order, < 0.1 µM and < 1 µM.
With `CC(C)[C@H]1CO[C@]23CCN(c4ccccc4)C[C@H]2CCC(=O)N13` [(3S,7aR,11aR)-3-isopropyl-9-phenyl-2,3,6,7,7a,8,10,11-octahydrooxazolo[2,3-j][1,6]naphthyridin-5-one], the IC50 in experiment [1] (setting [3]) is 0.1 to 1 µM. Besides, the MIC with Mtb H37Rv-WT (setting [4]) was in the range of 1 to 10 µM (≈ 0.314 to 3.14 µg/mL).
Consider `CC(C)[C@H]1CO[C@]23CCN(CC4CCCCC4)C[C@H]2CCC(=O)N13` [(3S,7aR,11aR)-9-(cyclohexylmethyl)-3-isopropyl-2,3,6,7,7a,8,10,11-octahydrooxazolo[2,3-j][1,6]naphthyridin-5-one], for which the IC50 in experiment [1] (setting [3]) fell in the range of 0.1 to 1 µM. In the experiment on Mtb H37Rv-WT (setting [4]), the MIC was < 1 µM.
The like results for `CC(C)[C@H]1CO[C@]23CCN(Cc4ccccc4)C[C@H]2CCC(=S)N13` [(3S,7aR,11aR)-9-benzyl-3-isopropyl-2,3,6,7,7a,8,10,11-octahydrooxazolo[2,3-j][1,6]naphthyridine-5-thione] were, in that order, 0.1 to 1 µM and 1 to 10 µM (≈ 0.345 to 3.45 µg/mL).
In the case of `CC(C)[C@H]1CS[C@]23CCN(Cc4ccccc4)C[C@H]2CCC(=O)N13` [(3S,7aR,11aR)-9-benzyl-3-isopropyl-2,3,6,7,7a,8,10,11-octahydrothiazolo[2,3-j][1,6]naphthyridin-5-one], in experiment [1] (setting [3]), the IC50 was > 1 µM.
Regarding `CC(C)(C)[C@H]1CO[C@]23CCN(Cc4ccccc4)C[C@H]2CCC(=O)N13` [(3S,7aR,11aR)-9-benzyl-3-tert-butyl-2,3,6,7,7a,8,10,11-octahydrooxazolo[2,3-j][1,6]naphthyridin-5-one], the IC50 in experiment [1] (setting [3]) was > 1 µM. Further, the MIC in the experiment on Mtb H37Rv-WT (setting [4]) is > 10 µM.
As to `CC(C)[C@H]1CO[C@]23CCN(Cc4ccc(Cl)cc4)C[C@H]2CCC(=O)N13` [Example 4, (3S,7aR,11aR)-9-[(4-chlorophenyl)methyl]-3-isopropyl-2,3,6,7,7a,8,10,11-octahydrooxazolo[2,3-j][1,6]naphthyridin-5-one], the IC50 in [1] (read-out: IC50 Ndh-M. tb) and in experiment [2] was < 0.1 µM throughout. The MIC in the experiment on Mtb H37Rv-WT (setting [6]) was < 1 µM.
For the compound `CC(C)[C@H]1CO[C@]23CCN(Cc4ccc(Cl)c(Cl)c4)C[C@H]2CCC(=O)N13` [Example 5, (3S,7aR,11aR)-9-[(3,4-dichlorophenyl)methyl]-3-isopropyl-2,3,6,7,7a,8,10,11-octahydrooxazolo[2,3-j][1,6]naphthyridin-5-one], the IC50 in [1] (read-out: IC50 Ndh-M. tb) was < 0.1 µM. In the experiment with Mtb H37Rv-WT (setting [6]), the MIC is < 1 µM.
Regarding `CC(C)[C@H]1CO[C@]23CCN(Cc4ccc(Cl)c(C(F)(F)F)c4)C[C@H]2CCC(=O)N13` [Example 9, (3S,7aR,11aR)-9-[[4-chloro-3-(trifluoromethyl)phenyl]methyl]-3-isopropyl-2,3,6,7,7a,8,10,11-octahydrooxazolo[2,3-j][1,6]naphthyridin-5-one], the half-inhibitory concentration (IC50) in experiment [1] (read-out: IC50 Ndh-M. tb) is < 0.1 µM. Besides, the MIC with M. abscessus S was 1 to 10 µM (≈ 0.431 to 4.31 µg/mL); against M. avium, < 1 µM; against M. abscessus R, 1 to 10 µM (≈ 0.431 to 4.31 µg/mL); in the experiment on Mtb H37Rv-WT (setting [6]), < 1 µM; with M. smegmatis, 1 to 10 µM (≈ 0.431 to 4.31 µg/mL); in the experiment with BCG, 1 to 10 µM (≈ 0.431 to 4.31 µg/mL). Moreover, in the experiment on M. marinum, the MIC was < 1 µM.
With `CC(C)[C@H]1CO[C@]23CCN(Cc4cc(C(F)(F)F)nc5ccccc45)C[C@H]2CCC(=O)N13` [Example 25, (3S,7aR,11aR)-3-isopropyl-9-[[2-(trifluoromethyl)-4-quinolyl]methyl]-2,3,6,7,7a,8,10,11-octahydrooxazolo[2,3-j][1,6]naphthyridin-5-one], in the experiment with Mtb H37Rv-WT (setting [6]), the MIC was < 1 µM.
As for `CC(C)[C@H]1CO[C@]23CCN(Cc4cc5ccccc5n4C)C[C@H]2CCC(=O)N13` [Example 28, (3S,7aR,11aR)-3-isopropyl-9-[(1-methylindol-2-yl)methyl]-2,3,6,7,7a,8,10,11-ocathydrooxazolo[2,3-j][1,6]naphthyridin-5-one], the IC50 in experiment [1] (read-out: IC50 Ndh-M. tb) is < 0.1 µM. The MIC in the experiment on Mtb H37Rv-WT (setting [6]) and against M. smegmatis was < 1 µM throughout.
On to `CC(C)[C@H]1CO[C@]23CCN(CCc4ccc(C(F)(F)F)cc4)C[C@H]2CCC(=O)N13` [Example 38, (3S,7aR,11aR)-3-isopropyl-9-[2-[4-(trifluoromethyl)phenyl]ethyl]-2,3,67,7a,8,10,11-octahydrooxazolo[2,3-j][1,6]naphthyridin-5-one], for which the MIC in the experiment on Mtb H37Rv-WT (setting [6]) was < 1 µM.
On the same count and under the same terms, the result for `CC(C)[C@H]1CO[C@]23CCN(CCCc4ccc(C(F)(F)F)cc4)C[C@H]2CCC(=O)N13` [Example 39, (3S,7aR,11aR)-3-isopropyl-9-[3-[4-(trifluoromethyl)phenyl]propyl]-2,3,6,7,7a,8,10,11-octahydrooxazolo[2,3-j][1,6]naphthyridin-5-one] reads < 1 µM.
Take `CC(C)[C@H]1CO[C@]23CC[C@H](N(Cc4ccc(C(F)(F)F)cc4)Cc4ccc(C(F)(F)F)cc4)C[C@H]2CCC(=O)N13` [Example 70, (3S,7aR,9S,11aR)-9-[bis[[4-(trifluoromethyl)phenyl]methyl]ami-no]-3-isopropyl-3,6,7,7a,8,9,10,11-octahydro-2H-oxazolo[2,3-j]quinolin-5-one]: the MIC with Mtb H37Rv-WT (144 h, REMA, read-out: MIC M. tuberculosis) is < 1 µM.
Turning to `CC(C)[C@H]1CO[C@]23CCN(C(=O)OCc4ccc(C(F)(F)F)cc4)C[C@H]2CCC(=O)N13` [[4-(trifluoromethyl)phenyl]methyl (3S,7aR,11aR)-3-isopropyl-5-oxo-2,3,6,7,7a,8,10,11-octahydrooxazolo[2,3-j][1,6]naphthyridine-9-carboxylate], in the experiment on Mtb H37Rv-WT (setting [4]), the MIC fell in the range of 1 to 10 µM (≈ 0.44 to 4.4 µg/mL).
In the case of `CC(C)[C@H]1CO[C@]23CCN(C(=O)OCc4ccccc4)C[C@H]2CCC(=O)N13` [benzyl (3S,7aR,11aR)-3-isopropyl-5-oxo-2,3,6,7,7a,8,10,11-octahydrooxazolo[2,3-j][1,6]naphthyridine-9-carboxylate], in [1] (setting [3]), the IC50 lay within 0.1 to 1 µM. Further, the MIC with Mtb H37Rv-WT (setting [4]) lay within 1 to 10 µM (≈ 0.372 to 3.72 µg/mL).
